Measured values published in ChEMBL document CHEMBL4265881, “Synthesis and bioactivity of 3,5-dimethylpyrazole derivatives as potential PDE4 inhibitors” (Bioorg Med Chem Lett, 2018).

Experiments:
[1] = biological target: 3',5'-cyclic-AMP phosphodiesterase 4B (Homo sapiens, UniProt Q07343); experiment: Inhibition of human U937 cells-derived PDE4B using [3H]-cAMP as substrate measured after 30 mins
[2] = biological target: 3',5'-cyclic-AMP phosphodiesterase 4D (Homo sapiens, UniProt Q08499); experiment: Inhibition of human U937 cells-derived PDE4D using [3H]-cAMP as substrate measured after 30 mins
[3] = Inhibition of PDE4 in human PBMC assessed as reduction in LPS-stimulated TNFalpha release preincubated for 30 mins followed by LPS stimulation for 18 hrs by TR-FRET assay; assay type: cell-based
Mus musculus = experiment: Anti-inflammatory activity in Swiss albino mouse model of sepsis assessed as inhibition of LPS-induced TNFalpha release at 10 mg/kg, po; assay type: functional
Rattus norvegicus = experiment: Anti-inflammatory activity in Sprague-Dawley rat model of LPS-induced asthma/COPD assessed as inhibition of neutrophilia in BALF at 10 mg/kg, po; assay type: functional

Sequence of 3',5'-cyclic-AMP phosphodiesterase 4B (Q07343 whole entry): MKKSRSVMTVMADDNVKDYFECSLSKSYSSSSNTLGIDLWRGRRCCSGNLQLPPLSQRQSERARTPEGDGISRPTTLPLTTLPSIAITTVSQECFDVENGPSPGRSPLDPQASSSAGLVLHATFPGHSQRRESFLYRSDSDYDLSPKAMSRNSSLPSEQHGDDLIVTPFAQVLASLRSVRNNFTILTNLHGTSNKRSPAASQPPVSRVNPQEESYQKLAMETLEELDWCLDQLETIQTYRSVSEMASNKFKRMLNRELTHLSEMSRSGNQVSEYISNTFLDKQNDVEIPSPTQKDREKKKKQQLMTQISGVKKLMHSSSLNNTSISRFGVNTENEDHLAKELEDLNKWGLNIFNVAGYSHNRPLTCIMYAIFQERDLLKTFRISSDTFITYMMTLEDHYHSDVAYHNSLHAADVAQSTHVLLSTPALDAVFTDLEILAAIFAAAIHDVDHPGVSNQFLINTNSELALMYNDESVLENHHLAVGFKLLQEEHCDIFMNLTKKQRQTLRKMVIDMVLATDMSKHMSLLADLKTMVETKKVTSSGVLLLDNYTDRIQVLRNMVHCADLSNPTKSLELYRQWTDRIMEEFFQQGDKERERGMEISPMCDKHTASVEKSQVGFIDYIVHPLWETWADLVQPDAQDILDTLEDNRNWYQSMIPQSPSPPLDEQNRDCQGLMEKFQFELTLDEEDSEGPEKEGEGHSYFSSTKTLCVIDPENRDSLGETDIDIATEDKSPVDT
Sequence of 3',5'-cyclic-AMP phosphodiesterase 4D (Q08499 whole entry): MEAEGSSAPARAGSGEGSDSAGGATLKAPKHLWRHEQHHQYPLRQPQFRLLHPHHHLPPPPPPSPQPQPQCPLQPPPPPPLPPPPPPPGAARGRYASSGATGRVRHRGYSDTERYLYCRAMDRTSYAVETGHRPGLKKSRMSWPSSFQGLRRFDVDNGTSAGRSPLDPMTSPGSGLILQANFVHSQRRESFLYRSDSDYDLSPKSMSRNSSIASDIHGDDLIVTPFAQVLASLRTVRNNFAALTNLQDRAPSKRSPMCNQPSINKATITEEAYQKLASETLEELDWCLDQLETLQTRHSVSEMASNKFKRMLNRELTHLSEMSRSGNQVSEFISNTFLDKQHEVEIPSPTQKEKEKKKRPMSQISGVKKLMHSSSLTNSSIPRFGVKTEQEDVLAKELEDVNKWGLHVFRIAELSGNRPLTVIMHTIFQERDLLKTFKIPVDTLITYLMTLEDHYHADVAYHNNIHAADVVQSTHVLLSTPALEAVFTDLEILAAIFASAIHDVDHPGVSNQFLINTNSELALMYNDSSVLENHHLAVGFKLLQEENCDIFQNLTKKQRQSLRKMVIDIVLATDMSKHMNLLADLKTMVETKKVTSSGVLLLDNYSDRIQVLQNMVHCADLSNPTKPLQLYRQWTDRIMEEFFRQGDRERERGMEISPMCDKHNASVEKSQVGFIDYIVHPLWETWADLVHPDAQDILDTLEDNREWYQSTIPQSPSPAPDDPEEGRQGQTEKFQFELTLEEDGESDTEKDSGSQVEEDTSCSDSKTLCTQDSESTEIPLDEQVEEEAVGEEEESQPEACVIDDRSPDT

| SMILES | IC50 [1] | IC50 [2] | IC50 [3] | inhibition in vivo at 10 mg/kg (Mus musculus) | inhibition in vivo at 10 mg/kg (Rattus norvegicus) |
| --- | --- | --- | --- | --- | --- |
| Cc1cc(C)n(C(=O)c2ccc(-c3ccccc3Cl)o2)n1 | 52.4 µM | – | 112 µM | – | – |
| Cc1cc(C)n(C(=O)c2ccc(-c3cccc([N+](=O)[O-])c3)o2)n1 | 35.9 µM | – | 69.3 µM | – | – |
| Cc1cc(C)n(C(=O)c2ccc(-c3cccc(F)c3)o2)n1 | 20.2 µM | – | 70.8 µM | – | – |
| Cc1cc(C)n(C(=O)c2ccc(-c3c(F)cccc3F)o2)n1 | 14.5 µM | 88.2 µM | 88.7 µM | – | – |
| Cc1cc(C)n(C(=O)c2ccc(-c3ccccc3F)o2)n1 | 45.3 µM | – | 98.2 µM | – | – |
| Cc1cc(C)n(C(=O)c2ccc(-c3ccc(F)cc3F)o2)n1 | 3.2 µM | 19.6 µM | 19.2 µM | 29.6% | 24.2% |
| Cc1cc(C)n(C(=O)c2ccc(-c3cccc(Cl)c3)o2)n1 | 20.9 µM | – | 58.4 µM | – | – |
| Cc1cc(C)n(C(=O)c2ccc(-c3ccccc3[N+](=O)[O-])o2)n1 | 62.7 µM | – | 168 µM | – | – |
| COc1ccc(C2CNC(=O)C2)cc1OC1CCCC1 (centres undefined) [ROLIPRAM] | – | – | 16.5 µM | 41.7% | 32.8% |

Second part, led by results:

| IC50 [1] | IC50 [2] | IC50 [3] | SMILES | inhibition in vivo at 10 mg/kg (Mus musculus) | inhibition in vivo at 10 mg/kg (Rattus norvegicus) |
| --- | --- | --- | --- | --- | --- |
| 8.4 µM | 52.9 µM | 37.1 µM | Cc1ccc(-c2ccc(C(=O)n3nc(C)cc3C)o2)cc1 | – | – |
| 51.1 µM | – | 154 µM | Cc1cc(C)n(C(=O)c2ccc(-c3ccc(Br)cc3)o2)n1 | – | – |
| 15.4 µM | 87.3 µM | 41.7 µM | Cc1cc(C)n(C(=O)c2ccc(-c3ccc([N+](=O)[O-])cc3)o2)n1 | – | – |
| 1.7 µM | 9.6 µM | 10.4 µM | COc1ccc(-c2ccc(C(=O)n3nc(C)cc3C)o2)cc1 | 43.1% | 36.5% |
| 3.9 µM | 26.4 µM | 25.1 µM | Cc1cc(C)n(C(=O)c2ccc(-c3ccc(Cl)cc3)o2)n1 | – | – |
| 70.3 µM | – | 178 µM | Cc1cc(C)n(C(=O)c2ccc(-c3ccccc3)o2)n1 | – | – |
| 7.2 µM | 49.3 µM | 24.3 µM | Cc1cc(C)n(C(=O)c2ccc(-c3ccc(F)cc3)o2)n1 | – | – |
